Measurements: patent publication US8829185B2 (Bayer HealthCare LLC, priority 2005, dated 2014)

Each molecule was assayed against T1, FGFR1-GST (Homo sapiens, UniProt P11362) (assay: FGFR-1 TR-FRET biochemical assay). Conditions: bounds given in nM.
T1 construct: GST; made in house
Description: FGFR-1 TR-FRET Biochemical Assay
The FGFR-1 Assay was performed on half well 96-well opaque plates (Costar 3915) in a LANCE format. LANCE is a homogenous time resolved fluormetry based application available through Perkin Elmer. For this assay, 50 uL reactions were set up using: 0.6 uM ATP (Sigma), 25 nM poly GT-biotin (CIS BIO International), 2 nM Eu-labelled phospho-Tyr Ab (PY20 PerkinElmer), 10 nM Streptavidin-APC (Perkin Elmer), 5 nM FGFR1-GST (generated by DRT, Bayer Healthcare), 1% DMSO, 50 mM HEPES pH 7.5, 10 mM MgCl2, 0.1 mM EDTA, 0.015% Brij, 0.1 mg/ml BSA, 0.1% B-mercaptoethanol. All reactions were initiated with the addition of enzyme and were left to incubate for one hour at room temperature. Time-resolved fluorescence was then read on a Perkin Elmer VictorV Multilabel counter. The reading protocol uses an excitation wavelength at 340 nm and emission reads at both 615 and 665 nm. Signal was calculated as a ratio: (Fluorescence at 665 nm/Fluorescence at […])*10000 for each well. The background control used for this assay is the signal produced with all assay components excluding ATP. For IC50 generation, compounds were added prior to the enzyme initiation. A 50-fold stock plate was made with compounds serially diluted 1:5 in a 50% DMSO/50% dH2O solution. A 1 μL addition of the stock to the assay wells gave final compound concentrations ranging from 10 μM −0.128 nM in 1% DMSO. The data were expressed as percent inhibition: % inhibition=100−((Signal with inhibitor-background)/(Signal without inhibitor−background))*100.

T1 sequence (P11362 22-822): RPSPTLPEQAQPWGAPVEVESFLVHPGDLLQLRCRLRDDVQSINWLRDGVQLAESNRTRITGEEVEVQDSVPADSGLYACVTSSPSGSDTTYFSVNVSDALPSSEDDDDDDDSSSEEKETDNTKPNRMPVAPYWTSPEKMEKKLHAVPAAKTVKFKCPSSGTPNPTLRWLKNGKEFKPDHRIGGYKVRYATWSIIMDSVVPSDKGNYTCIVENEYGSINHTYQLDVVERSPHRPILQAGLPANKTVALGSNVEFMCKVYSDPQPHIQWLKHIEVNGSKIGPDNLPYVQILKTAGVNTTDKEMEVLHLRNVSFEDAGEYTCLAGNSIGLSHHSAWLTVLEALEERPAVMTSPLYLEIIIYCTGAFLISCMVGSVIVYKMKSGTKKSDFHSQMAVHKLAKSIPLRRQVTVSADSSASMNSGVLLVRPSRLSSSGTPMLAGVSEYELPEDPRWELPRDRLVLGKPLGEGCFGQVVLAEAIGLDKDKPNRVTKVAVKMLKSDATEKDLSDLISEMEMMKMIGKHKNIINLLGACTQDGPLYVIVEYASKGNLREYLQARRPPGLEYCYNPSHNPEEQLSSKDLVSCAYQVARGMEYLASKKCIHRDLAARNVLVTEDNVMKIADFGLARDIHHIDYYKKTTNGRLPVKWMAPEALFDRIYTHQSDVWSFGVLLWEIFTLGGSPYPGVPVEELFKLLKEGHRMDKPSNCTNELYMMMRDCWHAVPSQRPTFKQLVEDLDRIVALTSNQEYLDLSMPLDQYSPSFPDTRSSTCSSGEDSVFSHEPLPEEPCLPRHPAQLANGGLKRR

Row | IC50 [nM] | Structure (SMILES)
1 | 10 to 100 | CC(=O)c1c(-c2ccc(NC(=O)Nc3cc(C(F)(F)F)ccc3F)c(F)c2)c2c(N)ncnn2c1CN1CCOCC1 [Example 57, N-4-[6-acetyl-4-amino-7-(morpholin-4-ylmethyl)pyrrolo[2,1-f]-[1,2,4]triazin-5-yl]-2-fluorophenyl-N′-[2-fluoro-5-(trifluoromethyl)phenyl]urea]
2 | > 100 | COCc1c(-c2ccc(NC(=O)Nc3cc(C(F)(F)F)ccn3)cc2)c2c(N)ncnn2c1CN1CCC(F)(F)CC1 [Example 40, N-{4-[4-amino-7-[(4,4-difluoropiperidin-1-yl)methyl]-6-(methoxymethyl)pyrrolo[2,1-f][1,2,4]triazin-5-yl]phenyl}-N′-[4-(trifluoromethyl)pyridin-2-yl]urea]
3 | 10 to 100 | CN1CCN(Cc2c(C#N)c(-c3ccc(NC(=O)Nc4cc(C(F)(F)F)ccc4F)cc3)c3c(N)ncnn23)CC1 [Example 55, N-(4-4-amino-6-cyano-7-[(4-methylpiperazin-1-yl)methyl]-pyrrolo[2,1-f][1,2,4]triazin-5-ylphenyl)-N′-[2-fluoro-5-(trifluoromethyl)-phenyl]urea]
4 | < 10 | N#CCc1c(-c2ccc(NC(=O)Nc3cc(C(F)(F)F)ccc3F)cc2)c2c(N)ncnn2c1CN1CCOCC1 [Example 68, N-{4-[4-amino-6-(cyanomethyl)-7-(morpholin-4-ylmethyl)-pyrrolo[2,1-f][1,2,4]triazin-5-yl]phenyl}-N′-[2-fluoro-5-(trifluoromethyl)-phenyl]urea]
5 | > 100 | COCc1c(-c2ccc(NC(=O)Nc3cc(C(F)(F)F)ccc3F)cc2)c2c(N)ncnn2c1C#N [Example 11, N-4-[4-amino-7-cyano-6-(methoxy-methyl)pyrrolo[2,1-f][1,2,4]triazin-5-yl]phenyl-N′-[2-fluoro-5-(trifluoromethyl)-phenyl]urea]
6 | 10 to 100 | Nc1ncnn2c(CN3CCOCC3)c(Cl)c(-c3ccc(NC(=O)Nc4cc(C(F)(F)F)ccc4Cl)c(F)c3)c12 [Example 159, N-{4-[4-amino-6-chloro-7-(morpholin-4-ylmethyl)pyrrolo[2,1-f][1,2,4]triazin-5-yl]-2-fluorophenyl}-N′-[2-chloro-5-(trifluoromethyl)-phenyl]urea]
7 | < 10 | Nc1ncnn2c(CN3CCOCC3)c(C(F)F)c(-c3ccc(NC(=O)Nc4cc(C(F)(F)F)ccn4)c(F)c3)c12 [Example 116, N-{4-[4-amino-6-(difluoromethyl)-7-(morpholin-4-ylmethyl)-pyrrolo[2,1-f][1,2,4]triazin-5-yl]-2-fluorophenyl}-N′-[4-(trifluoromethyl)pyridin-2-yl]urea]
8 | < 10 | Cc1cc(-c2c(C)c(CN3CCCOCC3)n3ncnc(N)c23)ccc1NC(=O)Nc1cc(C(F)(F)F)ccc1F [Example 126, 1-{4-[4-amino-6-methyl-7-(1,4-oxazepan-4-ylmethyl)pyrrolo[2,1-f][1,2,4]triazin-5-yl]-2-methylphenyl}-3-[2-fluoro-5-(trifluoromethyl)-phenyl]urea]
9 | 10 to 100 | COCc1c(-c2ccc(NC(=O)Nc3cc(C(F)(F)F)ccc3F)cc2)c2c(N)ncnn2c1COC [Example 24, N-{4-[4-amino-6,7-bis(methoxymethyl)pyrrolo[2,1-f]-[1,2,4]triazin-5-yl]phenyl}-N′-[2-fluoro-5-(trifluoromethyl)phenyl]urea]
10 | < 10 | N#CCc1c(-c2ccc(NC(=O)Nc3cc(C(F)(F)F)ccc3F)cc2)c2c(N)ncnn2c1CN1CCNCC1 [Example 75, N-(4-{4-amino-6-(cyanomethyl)-7-(piperazin-1-ylmethyl)pyrrolo[2,1-f][1,2,4]triazin-5-yl}phenyl)-N′-[2-fluoro-5-(trifluoromethyl)phenyl]urea]
11 | 10 to 100 | CC(=O)c1c(-c2ccc(NC(=O)Nc3cc(C(F)(F)F)ccn3)cc2)c2c(N)ncnn2c1CN1CCN(C)CC1 [Example 96, N-(4-{6-acetyl-4-amino-7-[(4-methylpiperazin-1-yl)methyl]pyrrolo[2,1-f][1,2,4]triazin-5-yl}phenyl)-N′-[4-(trifluoromethyl)-pyridin-2-yl]urea]
12 | 10 to 100 | COCCNCc1c(COC)c(-c2ccc(NC(=O)Nc3cc(C(F)(F)F)ccc3F)cc2)c2c(N)ncnn12 [Example 15, N-{4-[4-amino-7-{[(2-methoxyethyl)amino]methyl}-6-(methoxymethyl)pyrrolo[2,1-f][1,2,4]triazin-5-yl]phenyl}-N′-[2-fluoro-5-(trifluoromethyl)phenyl]urea]
13 | 10 to 100 | CCC(=O)c1c(-c2ccc(NC(=O)Nc3cc(C(F)(F)F)ccn3)cc2)c2c(N)ncnn2c1CN1CCOCC1 [Example 90, N-{4-[4-amino-7-(morpholin-4-ylmethyl)-6-propionylpyrrolo[2,1-f][1,2,4]triazin-5-yl]phenyl}-N′-[4-(trifluoromethyl)-pyridin-2-yl]urea]
14 | > 100 | COCCN(C)Cc1c(-c2ccc(NC(=O)Nc3cc(C(F)(F)F)ccc3F)cc2)c2c(N)ncnn2c1CN1CCOCC1 [Example 110, N-4-[4-amino-6-[(2-methoxyethyl)(methyl)-amino]methyl-7-(morpholin-4-ylmethyl)pyrrolo[2,1-f][1,2,4]triazin-5-yl]phenyl-N′-[2-fluoro-5-(trifluoromethyl)phenyl]urea]
15 | < 10 | N#CCc1c(-c2ccc(NC(=O)Nc3cc(C(F)(F)F)ccc3Cl)c(F)c2)c2c(N)ncnn2c1CN1CCS(=O)(=O)CC1 [Example 83, N-(4-{4-amino-6-(cyanomethyl)-7-[(1,1-dioxidothiomorpholin-4-yl)methyl]pyrrolo[2,1-f][1,2,4]triazin-5-yl}-2-fluorophenyl)-N′-[2-chloro-5-(trifluoromethyl)phenyl]urea]
16 | 10 to 100 | CC(=O)c1c(-c2ccc(NC(=O)Nc3cc(C(F)(F)F)ccn3)cc2)c2c(N)ncnn2c1CN1CCOCC1 [Example 88, N-{4-[6-acetyl-4-amino-7-(morpholin-4-ylmethyl)pyrrolo[2,1-f][1,2,4]triazin-5-yl]phenyl}-N′-[4-(trifluoromethyl)-pyridin-2-yl]urea]
17 | < 10 | COCc1c(-c2ccc(NC(=O)Nc3cc(C(F)(F)F)ccn3)c(C)c2)c2c(N)ncnn2c1CN1CCOCC1 [Example 145, N-4-[4-amino-6-(methoxymethyl)-7-(morpholin-4-ylmethyl)pyrrolo[2,1-f][1,2,4]triazin-5-yl]-2-methylphenyl-N′-[4-(trifluoromethyl)pyridin-2-yl]urea]
18 | < 10 | COCc1c(-c2ccc(NC(=O)Nc3cccc(C(C)(C)C)c3)c(F)c2)c2c(N)ncnn2c1CN1CCOCC1 [Example 138, N-{4-[4-amino-6-(methoxymethyl)-7-(morpholin-4-ylmethyl)-pyrrolo[2,1-f][1,2,4]triazin-5-yl]-2-fluorophenyl}-N′-(3-tert-butylphenyl)urea]
19 | 10 to 100 | CN1CCN(Cc2c(CC#N)c(-c3ccc(NC(=O)Nc4cc(C(F)(F)F)ccc4F)cc3)c3c(N)ncnn23)CC1 [Example 74, N-(4-{4-amino-6-(cyanomethyl)-7-[(4-methylpiperazin-1-yl)methyl]pyrrolo[2,1-f][1,2,4]triazin-5-yl}phenyl)-N′-[2-fluoro-5-(trifluoromethyl)phenyl]urea]
20 | < 10 | Nc1ncnn2c(CN3CCOCC3)c(-c3cnco3)c(-c3ccc(NC(=O)Nc4cc(C(F)(F)F)ccc4F)cc3)c12 [Example 26, N-4-[4-amino-7-(morpholin-4-ylmethyl)-6-(1,3-oxazol-5-yl)pyrrolo[2,1-f][1,2,4]triazin-5-yl]phenyl-N′-[2-fluoro-5-(trifluoromethyl)phenyl]urea]
21 | > 100 | CON(C)C(=O)c1c(-c2ccc(NC(=O)Nc3cc(C(F)(F)F)ccn3)cc2)c2c(N)ncnn2c1CN1CCN(C)CC1 [Example 94, 4-amino-N-methoxy-N-methyl-7-[(4-methylpiperazin-1-yl)methyl]-5-{4-[({[4-(trifluoromethyl)pyridin-2-yl]amino}-carbonyl)amino]-phenyl}pyrrolo[2,1-f][1,2,4]triazine-6-carboxamide]
22 | < 10 | N#CCc1c(-c2ccc(NC(=O)Nc3cc(C(F)(F)F)ccn3)cc2)c2c(N)ncnn2c1CN1CCNC(=O)C1 [Example 66, N-(4-{4-amino-6-(cyanomethyl)-7-[(3-oxopiperazin-1-yl)methyl]-pyrrolo[2,1-f][1,2,4]triazin-5-yl}phenyl)-N′-[4-(trifluoromethyl)pyridin-2-yl]urea]
23 | 10 to 100 | COCc1c(-c2ccc(NC(=O)Nc3cc(C(F)(F)F)ccn3)cc2)c2c(N)ncnn2c1CN1CCOCC1 [Example 35, N-4-[4-amino-6-(methoxymethyl)-7-(morpholin-4-ylmethyl)pyrrolo[2,1-f][1,2,4]triazin-5-yl]phenyl-N′-[4-(trifluoromethyl)pyridin-2-yl]urea]
24 | 10 to 100 | CC(O)c1c(-c2ccc(NC(=O)Nc3cc(C(F)(F)F)ccc3F)cc2)c2c(N)ncnn2c1CN1CCOCC1 (stereo not shown) [Example 104, N-4-[4-amino-6-(1-hydroxyethyl)-7-(morpholin-4-ylmethyl)-pyrrolo[2,1-f][1,2,4]triazin-5-yl]phenyl-N′-[2-fluoro-5-(trifluoromethyl)-phenyl]urea]

Same assay, conditions: upper bound in μM

Row | IC50 [nM] | Structure (SMILES)
25 | < 1000 | COCc1c(-c2ccc(NC(=O)Nc3cc(C(F)(F)F)ccn3)cc2)c2c(N)ncnn2c1CN1CCC(F)(F)CC1 [Example 40, N-{4-[4-amino-7-[(4,4-difluoropiperidin-1-yl)methyl]-6-(methoxymethyl)pyrrolo[2,1-f][1,2,4]triazin-5-yl]phenyl}-N′-[4-(trifluoromethyl)pyridin-2-yl]urea]
26 | < 1000 | COCc1c(-c2ccc(NC(=O)Nc3cc(C(F)(F)F)ccc3F)cc2)c2c(N)ncnn2c1C#N [Example 11, N-4-[4-amino-7-cyano-6-(methoxy-methyl)pyrrolo[2,1-f][1,2,4]triazin-5-yl]phenyl-N′-[2-fluoro-5-(trifluoromethyl)-phenyl]urea]
27 | < 1000 | COCCN(C)Cc1c(-c2ccc(NC(=O)Nc3cc(C(F)(F)F)ccc3F)cc2)c2c(N)ncnn2c1CN1CCOCC1 [Example 110, N-4-[4-amino-6-[(2-methoxyethyl)(methyl)-amino]methyl-7-(morpholin-4-ylmethyl)pyrrolo[2,1-f][1,2,4]triazin-5-yl]phenyl-N′-[2-fluoro-5-(trifluoromethyl)phenyl]urea]
28 | < 1000 | CON(C)C(=O)c1c(-c2ccc(NC(=O)Nc3cc(C(F)(F)F)ccn3)cc2)c2c(N)ncnn2c1CN1CCN(C)CC1 [Example 94, 4-amino-N-methoxy-N-methyl-7-[(4-methylpiperazin-1-yl)methyl]-5-{4-[({[4-(trifluoromethyl)pyridin-2-yl]amino}-carbonyl)amino]-phenyl}pyrrolo[2,1-f][1,2,4]triazine-6-carboxamide]
